Data published in patent US20090258914A1, “Inhibitor of Anti-Apoptotic Proteins” (Burnham Institute for Medical Research, priority 2008, published 2009).

What was measured:
BCL-xL = target: T1, BCL-xL (Homo sapiens, UniProt Q07817); assay: Dissociation constant (Kd) / binding to BCL-xL
T1 construct: Recombinant full length BCL-XL was produced from a pET-19b (Novagen) plasmid construct; poly-His (N); made in house; host or cells: E. coli BL21
Method: The inhibition was also evaluated by measuring dissociation constant (Kd) values for compound A in comparison with some related compounds 1, 2, and 3.
For all NMR experiments, BCL-xL was exchanged into 50 mM phosphate buffer at pH 7.5 and measurements were performed at 30° C. 2D [^15N,^1H]-HSQC spectra for BCL-xL were measured with 0.5 mM samples of ^15N-labeled protein. All experiments were performed with a 600 MHz Bruker Avance spectrometer, both equipped with either a TXI probe or a TCI cryoprobe. In all experiments, dephasing of residual water signals was obtained with a WATERGATE sequence. In order to test the ability of test compounds to bind to Bcl-xL, a 25 μM sample of the protein was prepared and 1D ^1H NMR spectra were collected in absence and presence of test compounds. By observing the aliphatic region of the spectra, binding can be readily detected in these simple experiments due to chemical shift changes in active site methyl groups of Ile, Leu, Thr, Val or Ala (region between 0.8 and 0.3 ppm).

Microsomal stability = assay type: in vitro ADME
Plasma stability = assay type: in vitro ADME
H460 = assay: Cell viability, H460; assay type: cell-based; details: for IC50: Homo sapiens, NCI-H460, cell viability, mean ± standard deviation of three independent experiments
Method: (§1) The inhibition information for cells H460 and PC3ML is also shown by FIG. 2. […] The structures of compounds 1-3 are shown in Table 1, above, and the structure of compound 4 is as follows:
(§2) The effectiveness of compound A was also evaluated, in comparison with compound 1 shown in Table 1, by determining mean IC50 values, which were measured for three independent experiments (each in triplicate) for compounds 1 and A. All points were normalized to control as a percentage of cell viability and statistics were completed with Graphpad Prism software.

A549L = assay: Cell viability IC50, A549L; assay type: cell-based; details: mean ± standard deviation of three independent experiments
Method: as §2

B6Bcl2 mice [1] = assay: Safety in B6Bcl2 mice (weight loss, physical exam); assay type: in vivo, mouse; details: regardless of route of administration (oral or intraperitoneal)
Method: (§3) Compound A was given to B6Bcl2 mice at a daily dose of […] for 3 days through oral gavage. […] Both compound A and the negative control were preliminarily dissolved in PBS. After 3 days, the spleens of the animals were removed and weighed.
(§4) In parallel experiments, compound A was also administered intraperitoneally at […], as were some related compounds, such as compounds 1 and 2 shown in Table 1, above. In these experiments, after 24 hours, the spleens of the animals were removed and weighed.
(§5) The results of efficacy of compound A administered intraperitoneally were also compared with the results obtained when compound A was administered orally. […] Accordingly, compound A can be administered in both ways, orally or intraperitoneally. […] It was also shown that compound A can be administered safely.

PC3ML = assay: Cell viability, PC3ML; assay type: cell-based; details: for IC50: PC3-ML, cell viability, mean ± standard deviation of three independent experiments
Method: as §1, §2

B6Bcl2 mice [2] = assay: Spleen shrinkage / in vivo efficacy in B6Bcl2 transgenic mice; set-up: species or system mouse; details: for in vivo activity / order of potency in terms of in vivo efficacy: B6BCL-2 transgenic mouse
Source text: In the same model, another known compound apogossypolone was not effective. Gossypol is described, e.g., in U.S. Pat. No. 7,186,708. Apogossypol is described, e.g., in Meyers A. I.; Willemsen J. J., Tetrahedron Letters, vol. 37, No. 6, February, […], pp. 791-792.
as §3, §4, §5

RS11846S = assay: Cell viability IC50, RS11846S; assay type: cell-based; details: mean ± standard deviation of three independent experiments
Method: as §2

[3] = FIG. 2, in comparison with compounds 1-4

T1 sequence (Q07817 whole entry, species assumed): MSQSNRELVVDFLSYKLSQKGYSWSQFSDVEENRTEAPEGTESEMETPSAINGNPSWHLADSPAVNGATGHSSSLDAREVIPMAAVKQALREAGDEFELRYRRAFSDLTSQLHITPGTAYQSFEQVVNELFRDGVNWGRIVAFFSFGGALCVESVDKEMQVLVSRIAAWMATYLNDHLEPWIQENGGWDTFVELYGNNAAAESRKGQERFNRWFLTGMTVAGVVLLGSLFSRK

Kd (BCL-xL) [µM] | Microsomal Stability, % (45 minutes) (Microsomal stability) [%] | Plasma Stability, % (45 minutes) (Plasma stability) [%] | Compound | IC50 (H460) [µM] | IC50 (A549L) [µM] | IC50 (PC3ML) [µM] | in vivo activity (B6Bcl2 mice [2]) | order of potency in terms of in vivo efficacy (B6Bcl2 mice [2]) | IC50 (RS11846S) [µM] | other results
11.8 | 75 | 51 | CC(=C\c1ccccc1)/C=C1/SC(=S)N(C(C(=O)O)C(C)C)C1=O (stereo not drawn) [Compound 3] | – | – | – | – | – | – | –
1.1 | 54 | 56 | CC(C)C(C(=O)O)N1C(=O)/C(=C\c2ccc(Br)cc2)SC1=S (stereo not drawn) [Compound 1] | 3 ± 2.4 | 12.2 ± 5.9 | 60.9 ± 1.6 | – | – | 6.5 ± 10 | –
0.16 | 22 | 59 | CC(C)C(C(=O)O)N1C(=O)/C(=C\c2ccc(-c3ccccc3)cc2)SC1=S (stereo not drawn) [Compound 2] | – | – | – | – | – | – | –
– | – | – | Cc1cc2c(C(C)C)c(O)c(O)cc2c(O)c1-c1c(C)cc2c(C(C)C)c(O)c(O)cc2c1O [apogossypol] | – | – | – | – | compound A>apogossypol=gossypol | – | –
– | – | – | apogossypolone | – | – | – | not effective | – | – | –

Compound | Kd (BCL-xL) [µM] | Microsomal Stability, % (45 minutes) (Microsomal stability) [%] | Plasma Stability, % (45 minutes) (Plasma stability) [%] | IC50 (H460) [µM] | IC50 (A549L) [µM] | IC50 (PC3ML) [µM] | in vivo activity (B6Bcl2 mice [2]) | order of potency in terms of in vivo efficacy (B6Bcl2 mice [2]) | IC50 (RS11846S) [µM] | other results
O=C(O)CN1C(=O)S/C(=C\c2ccc(-c3ccccc3)cc2)C1=O [Compound A, (Z)-2-(5-(biphenyl-4-ylmethylene)-2,4-dioxothiazolidin-3-yl)acetic acid] | 14 | 72 | 58 | 0.5 ± 0.3 | 0.8 ± 0.3 | 0.7 ± 0.6 | equal to, or better than, known compounds gossypol and apogossypol | compound A>apogossypol=gossypol | 0.4 | influence on the cell viability (H460; [3]): largest influence on the cell viability; weight loss or signs of toxicity via physical exam (B6Bcl2 mice [1]): no weight loss or signs of toxicity; influence on the cell viability (PC3ML; [3]): largest influence on the cell viability; shrinkage of spleen (B6Bcl2 mice [2]; either route, orally or intraperitoneally): induced shrinkage of spleen; degree of shrinkage of spleen, intraperitoneal injection higher than oral dosing (B6Bcl2 mice [2]; intraperitoneal vs oral, FIG. 4): about 100%; degree of shrinkage of spleen higher than that induced by compounds 1 or 2 (B6Bcl2 mice [2]; intraperitoneally at 60 mmol/kg, spleens weighed after 24 hours, FIG. 3): about 40%
